From the supplement of paper PMC10307832

Legend:
Assay in all cases: relative viability (nuclei count vs DMSO), 5 days (fraction); higher = more cells survive
Tosedostat + Bortezomib = compound: CC(C)C[C@@H](C(=O)N[C@H](C(=O)OC1CCCC1)c1ccccc1)[C@H](O)C(=O)NO [Tosedostat] + CC(C)C[C@H](NC(=O)[C@H](Cc1ccccc1)NC(=O)c1cnccn1)B(O)O [Bortezomib] (partner 0.002 µM)
Procedure, shortened: (§1)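 The day after seeding in 1536-well plates, lung cancer cell lines were treated by pin tool with a single drug, or with a fixed anchor-drug dose together with five library-drug doses (not always all listed) in √10 steps. After 5 days, a combined fix-and-stain solution (final 0.05% Triton X-100, 1% formaldehyde, 1 ug/ml Hoechst) was added. Nuclei counted on 4× images gave relative viability as treated counts over vehicle counts, reported as the median of duplicate plates.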

[1] = compound: CC1=NN=C(O1)C2=NN=C(C=C2)N3CCC(CC3)OC4=C(C=CC(=C4)F)Cl + CC(C)C[C@H](NC(=O)[C@H](Cc1ccccc1)NC(=O)c1cnccn1)B(O)O [Bortezomib] (partner 0.002 µM)
Procedure, shortened: as §1

[2] = compound: CC1=NN=C(O1)C2=NN=C(C=C2)N3CCC(CC3)OC4=C(C=CC(=C4)F)Cl + NC(=O)Nc1cc(-c2cccc(F)c2)sc1C(=O)N[C@H]1CCCNC1 [AZD7762] (partner 0.2 µM)
Procedure, shortened: as §1

Tosedostat + Crizotinib = compound: CC(C)C[C@@H](C(=O)N[C@H](C(=O)OC1CCCC1)c1ccccc1)[C@H](O)C(=O)NO [Tosedostat] + C[C@@H](Oc1cc(-c2cnn(C3CCNCC3)c2)cnc1N)c1c(Cl)ccc(F)c1Cl [Crizotinib] (partner 1 µM)
Procedure, shortened: as §1

Row | Cell Line | relative viability (Tosedostat + Bortezomib; first compound 0.02 µM) | relative viability (Tosedostat + Bortezomib; first compound 0.06325 µM) | relative viability (Tosedostat + Bortezomib; first compound 0.2 µM) | relative viability (Tosedostat + Bortezomib; first compound 0.6325 µM) | relative viability (Tosedostat + Bortezomib; first compound 2 µM) | relative viability ([1]; first compound 0.253 µM) | relative viability ([1]; first compound 0.8 µM) | relative viability ([1]; first compound 2.53 µM) | relative viability ([1]; first compound 8 µM) | relative viability ([2]; first compound 0.253 µM) | relative viability ([2]; first compound 0.8 µM) | relative viability ([2]; first compound 2.53 µM) | relative viability ([2]; first compound 8 µM) | relative viability (Tosedostat + Crizotinib; first compound 0.02 µM) | relative viability (Tosedostat + Crizotinib; first compound 0.06325 µM) | relative viability (Tosedostat + Crizotinib; first compound 0.2 µM) | relative viability (Tosedostat + Crizotinib; first compound 0.6325 µM) | relative viability (Tosedostat + Crizotinib; first compound 2 µM)
1 | LU99A | 1.11 | 1.04 | 1.08 | 0.94 | 0.761 | 1.01 | 1 | 1.06 | 0.953 | 0.349 | 0.341 | 0.57 | 0.385 | 0.546 | 0.636 | 0.648 | 0.484 | 0.478
2 | ChaGo-K-1 | 1.15 | 1.03 | 0.938 | 0.962 | 0.78 | 0.624 | 0.617 | 0.794 | 0.605 | 0.588 | 0.529 | 0.705 | 0.594 | 1.05 | 1.03 | 1.14 | 1.01 | 0.84
3 | NCI-H3122 | 1.02 | 1.03 | 1.1 | 1.05 | 1.02 | 0.662 | 0.707 | 0.71 | 0.566 | 0.444 | 0.469 | 0.503 | 0.485 | 0.292 | 0.274 | 0.277 | 0.254 | 0.234
4 | NCI-H1651 | 0.973 | 1.03 | 0.834 | 0.834 | 0.914 | 0.782 | 0.708 | 0.649 | 0.686 | 0.423 | 0.412 | 0.448 | 0.386 | 0.918 | 0.851 | 0.878 | 0.897 | 0.817
5 | NCI-H1755 | 0.963 | 0.896 | 0.928 | 0.887 | 0.845 | 0.493 | 0.625 | 0.73 | 0.628 | 0.442 | 0.428 | 0.465 | 0.418 | 0.933 | 0.846 | 0.876 | 0.856 | 0.771
6 | NCI-H1734 | 1.07 | 0.942 | 0.907 | 0.89 | 0.786 | 0.65 | 0.592 | 0.824 | 0.805 | 0.612 | 0.413 | 0.672 | 0.662 | 0.727 | 0.695 | 0.688 | 0.574 | 0.656
7 | NCI-H1993 | 1.02 | 1.22 | 0.852 | 0.872 | 0.642 | 0.922 | 0.901 | 0.925 | 0.966 | 0.713 | 0.69 | 0.769 | 0.652 | 0.994 | 0.761 | 0.779 | 0.688 | 0.685
8 | RERF-LC-KJ | 1.13 | 1.3 | 1.05 | 0.923 | 0.892 | 0.776 | 0.9 | 0.929 | 0.969 | 0.53 | 0.569 | 0.564 | 0.554 | 0.859 | 0.887 | 0.764 | 0.686 | 0.78
9 | HARA | 1.16 | 1.08 | 1.1 | 1.1 | 0.942 | 0.483 | 0.335 | 0.353 | 0.293 | 0.416 | 0.305 | 0.387 | 0.337 | 1.12 | 0.912 | 0.991 | 0.997 | 1.14
10 | NCI-H838 | 0.82 | 0.852 | 0.646 | 0.918 | 1.1 | 0.697 | 0.592 | 0.553 | 0.645 | 0.74 | 0.778 | 0.918 | 0.787 | 0.969 | 0.92 | 0.826 | 0.818 | 0.948
11 | NCI-H1666 | 0.753 | 0.849 | 0.766 | 0.735 | 0.698 | 0.419 | 0.851 | 0.756 | 0.57 | 0.686 | 0.765 | 0.79 | 0.715 | 0.972 | 1.01 | 1.01 | 0.937 | 1.11
12 | NCI-H322M | 1.36 | 0.853 | 1.2 | 1.1 | 1.08 | 1.05 | 1.05 | 1.21 | 1.11 | 0.51 | 0.563 | 0.581 | 0.543 | 0.877 | 0.957 | 0.841 | 0.868 | 0.71
13 | LCLC-97TM1 | 0.529 | 0.696 | 0.537 | 0.336 | 0.193 | 0.373 | 0.211 | 0.392 | 0.362 | 0.264 |  | 0.235 | 0.205 | 0.338 |  |  | 0.288 | 0.221
14 | EPLC-272H | 1.14 | 0.826 | 0.738 | 0.67 | 0.574 | 0.667 |  | 1.05 | 0.996 | 0.236 | 0.369 | 0.268 | 0.197 | 0.915 | 0.877 | 0.635 | 0.613 | 0.25
15 | NCI-H460 | 1.14 | 0.898 | 1.09 | 0.926 | 1.32 | 0.382 | 0.358 | 0.342 | 0.315 | 0.215 | 0.189 | 0.26 | 0.23 | 0.956 | 0.787 | 0.905 | 0.708 | 0.932
16 | NCI-H647 | 1.03 | 0.947 | 0.788 | 1.07 | 0.829 | 0.539 | 0.742 | 0.786 | 0.606 | 0.462 | 0.294 | 0.472 | 0.248 | 1.25 | 1.04 | 0.831 | 0.957 | 0.869
17 | CAL-12T | 0.987 | 0.897 | 0.966 | 0.85 | 0.549 | 1.01 | 0.867 | 0.86 | 0.696 | 0.637 | 0.586 | 0.606 | 0.479 | 0.702 | 0.594 | 0.727 | 0.533 | 0.661
